Source: patent US7138361B2, “Herbicidal heterocycles” (E. I. du Pont de Nemours and Company, priority 2000, dated 2006)

Key:
Type in all cases: in vivo
[1] = tested on: Surinam grass (Brachiaria decumbens); assay: Test B postemergence; conditions: 13 to 15 days
From the text: (§1) Seeds selected from barnyardgrass (Echinochloa crus-galli), Surinam grass (Brachiaria decumbens), cocklebur (Xanthium strumarium), corn (Zea mays), crabgrass (Digitaria sanguinalis), giant foxtail (Setaria faberii), lambsquarters (Chenopodium album), morning glory (Ipomoea hederacea), pigweed (Amaranthus retroflexus), rice (Oryza saliva) and velvetleaf (Abutilon theophrasti) were planted and treated preemergence with test chemicals formulated in a non-phytotoxic solvent mixture which included a surfactant.
(§2) At the same time, plants selected from these crop and weed species and also blackgrass (Alopecurus myosuroides), wheat (Triticum aestivum) and wild oat (Avena fatua) were treated with postemergence applications of test chemicals formulated in the same manner. Plants ranged in height from 2 to 18 cm (1- to 4-leaf stage) for postemergence treatments. Plant species in the flooded paddy test consisted of rice (Oryza saliva), smallflower flatsedge (Cyperus difformis), duck salad (Heteranthera limosa) and barnyardgrass (Echinochloa crus-galli) grown to the 2-leaf stage for testing. Treated plants and controls were maintained in a greenhouse for 13 to 15 days, after which time all species were compared to controls and visually evaluated. Plant response ratings, summarized in Table B, are based on a scale of 0 to 100 where 0 is no effect and 100 is complete control. A dash (-) response means no test result.

[2] = tested on: barnyardgrass (Echinochloa crus-galli); assay: Test B postemergence; conditions: 13 to 15 days
From the text: as §1, §2

[3] = tested on: blackgrass (Alopecurus myosuroides); assay: Test B postemergence; conditions: 13 to 15 days
From the text: as §1, §2

[4] = tested on: cocklebur (Xanthium strumarium); assay: Test B postemergence; conditions: 13 to 15 days
From the text: as §1, §2

[5] = tested on: corn (Zea mays); assay: Test B postemergence; conditions: 13 to 15 days
From the text: as §1, §2

[6] = tested on: crabgrass (Digitaria sanguinalis); assay: Test B postemergence; conditions: 13 to 15 days
From the text: as §1, §2

[7] = tested on: giant foxtail (Setaria faberii); assay: Test B postemergence; conditions: 13 to 15 days
From the text: as §1, §2

[8] = tested on: lambsquarters (Chenopodium album); assay: Test B postemergence; conditions: 13 to 15 days
From the text: as §1, §2

[9] = tested on: morning glory (Ipomoea hederacea); assay: Test B postemergence; conditions: 13 to 15 days
From the text: as §1, §2

[10] = tested on: pigweed (Amaranthus retroflexus); assay: Test B postemergence; conditions: 13 to 15 days
From the text: as §1, §2

[11] = tested on: velvetleaf (Abutilon theophrasti); assay: Test B postemergence; conditions: 13 to 15 days
From the text: as §1, §2

[12] = tested on: wheat (Triticum aestivum); assay: Test B postemergence; conditions: 13 to 15 days
From the text: as §1, §2

[13] = tested on: wild oat (Avena fatua); assay: Test B postemergence; conditions: 13 to 15 days
From the text: as §1, §2

[14] = tested on: Surinam grass (Brachiaria decumbens); assay: Test B preemergence
From the text: as §1, §2

[15] = tested on: barnyardgrass (Echinochloa crus-galli); assay: Test B preemergence
From the text: as §1, §2

[16] = tested on: cocklebur (Xanthium strumarium); assay: Test B preemergence
From the text: as §1, §2

[17] = tested on: corn (Zea mays); assay: Test B preemergence
From the text: as §1, §2

[18] = tested on: crabgrass (Digitaria sanguinalis); assay: Test B preemergence
From the text: as §1, §2

[19] = tested on: giant foxtail (Setaria faberii); assay: Test B preemergence
From the text: as §1, §2

[20] = tested on: lambsquarters (Chenopodium album); assay: Test B preemergence
From the text: as §1, §2

[21] = tested on: morning glory (Ipomoea hederacea); assay: Test B preemergence
From the text: as §1, §2

[22] = tested on: pigweed (Amaranthus retroflexus); assay: Test B preemergence
From the text: as §1, §2

[23] = tested on: rice (Oryza saliva); assay: Test B preemergence
From the text: as §1, §2

[24] = tested on: velvetleaf (Abutilon theophrasti); assay: Test B preemergence
From the text: as §1, §2

[25] = tested on: barnyardgrass (Echinochloa crus-galli); assay: Test C flooded paddy test; conditions: for Barnyardgrass plant response rating: Flooded Paddy, scale 0 to 100, 0 no effect, 100 complete control; for Plant response rating, Barnyardgrass: flooded paddy test, scale 0 to 100 (0 no effect, 100 complete control)
Method in brief: (§3)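 Ratings come from visual comparison with control plants after 12 to 14 days in the greenhouse. Each species was at the 2-leaf stage when the flooded paddy was treated. Scores run from 0, meaning no effect, to 100, meaning complete control.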

[26] = tested on: duck salad (Heteranthera limosa); assay: Test C flooded paddy test; conditions: for Ducksalad plant response rating: Flooded Paddy, scale 0 to 100, 0 no effect, 100 complete control; for Plant response rating, Ducksalad: flooded paddy test, scale 0 to 100 (0 no effect, 100 complete control)
Method in brief: as §3

[27] = tested on: rice (Oryza saliva); assay: Test C flooded paddy test; conditions: for Rice plant response rating: Flooded Paddy, scale 0 to 100, 0 no effect, 100 complete control; for Plant response rating, Rice: flooded paddy test, scale 0 to 100 (0 no effect, 100 complete control)
Method in brief: as §3

[28] = tested on: smallflower flatsedge (Cyperus difformis); assay: Test C flooded paddy test; conditions: for Flatsedge plant response rating: Flooded Paddy, scale 0 to 100, 0 no effect, 100 complete control; for Plant response rating, Flatsedge: flooded paddy test, scale 0 to 100 (0 no effect, 100 complete control)
Method in brief: as §3

[29] = Rate 125 g/ha, scale 0 (no effect) to 100 (complete control)
[30] = Rate 500 g/ha, scale 0 to 100, 0 is no effect, 100 is complete control
[31] = Preemergence, Rate 500 g/ha, scale 0 to 100, 0 no effect, 100 complete control
[32] = preemergence, Rate 125 g/ha, scale of 0 to 100 where 0 is no effect and 100 is complete control, 13 to 15 days

Cc1cc(N2CCC(n3ccc(C(C)(C)C)n3)C2=O)cc(Br)c1C (centres unmarked) [Compound 77]
Plant response rating, Surinam grass [1, 29]: 0 | Plant response rating, Surinam grass [1, 30]: 0 | Plant response rating, Barnyardgrass [2, 29]: 0 | Plant response rating, Barnyardgrass [2, 30]: 0 | Plant response rating, Blackgrass [3, 29]: 0 | Plant response rating, Blackgrass [3, 30]: 0 | Plant response rating, Cocklebur [4, 29]: 0 | Plant response rating, Cocklebur [4, 30]: 20 | Plant response rating, Corn [5, 29]: 0 | Plant response rating, Corn [5, 30]: 0 | Plant response rating, Crabgrass [6, 29]: 0 | Plant response rating, Crabgrass [6, 30]: 0 | Plant response rating, Foxtail, Giant [7, 29]: 0 | Plant response rating, Foxtail, Giant [7, 30]: 0 | Plant response rating, Lambsquarters [8, 29]: 0 | Plant response rating, Lambsquarters [8, 30]: 20 | Plant response rating, Morningglory [9, 29]: 0 | Plant response rating, Morningglory [9, 30]: 0 | Plant response rating, Pigweed [10, 29]: 70 | Plant response rating, Pigweed [10, 30]: 80 | Plant response rating, Velvetleaf [11, 29]: 0 | Plant response rating, Velvetleaf [11, 30]: 0 | Plant response rating, Wheat [12, 29]: 0 | Plant response rating, Wheat [12, 30]: 0 | Plant response rating, Wild Oat [13, 29]: 0 | Plant response rating, Wild Oat [13, 30]: 0 | Plant response rating, Surinam grass [14, 31]: 40 | Plant response rating, Surinam grass [14, 32]: 0 | Plant response rating, Barnyardgrass [15, 31]: 100 | Plant response rating, Barnyardgrass [15, 32]: 20 | Plant response rating, Cocklebur [16, 31]: 0 | Plant response rating, Cocklebur [16, 32]: 0 | Plant response rating, Corn [17, 31]: 0 | Plant response rating, Corn [17, 32]: 0 | Plant response rating, Crabgrass [18, 31]: 90 | Plant response rating, Crabgrass [18, 32]: 60 | Plant response rating, Foxtail, Giant [19, 31]: 0 | Plant response rating, Foxtail, Giant [19, 32]: 0 | Plant response rating, Lambsquarters [20, 31]: 100 | Plant response rating, Lambsquarters [20, 32]: 90 | Plant response rating, Morningglory [21, 31]: 0 | Plant response rating, Morningglory [21, 32]: 0 | Plant response rating, Pigweed [22, 31]: 100 | Plant response rating, Pigweed [22, 32]: 90 | Plant response rating, Rice [23, 31]: 0 | Plant response rating, Rice [23, 32]: 0 | Plant response rating, Velvetleaf [24, 31]: 0 | Plant response rating, Velvetleaf [24, 32]: 0 | Barnyardgrass plant response rating ([25]; Rate 250 g/ha): 0 | Barnyardgrass plant response rating ([25]; Rate 500 g/ha): 20 | Plant response rating, Barnyardgrass ([25]; Rate 62 g/ha): 0 | Plant response rating, Barnyardgrass ([25]; Rate 125 g/ha): 0 | Ducksalad plant response rating ([26]; Rate 250 g/ha): 0 | Ducksalad plant response rating ([26]; Rate 500 g/ha): 30 | Plant response rating, Ducksalad ([26]; Rate 62 g/ha): 0 | Plant response rating, Ducksalad ([26]; Rate 125 g/ha): 0 | Rice plant response rating ([27]; Rate 250 g/ha): 0 | Rice plant response rating ([27]; Rate 500 g/ha): 30 | Plant response rating, Rice ([27]; Rate 62 g/ha): 0 | Plant response rating, Rice ([27]; Rate 125 g/ha): 0 | Flatsedge plant response rating ([28]; Rate 250 g/ha): 80 | Flatsedge plant response rating ([28]; Rate 500 g/ha): 80 | Plant response rating, Flatsedge ([28]; Rate 62 g/ha): 70 | Plant response rating, Flatsedge ([28]; Rate 125 g/ha): 70

Cc1c(F)cc(N2CCC(n3ccc(C(C)(C)C)n3)C2=O)cc1Br (centres unmarked) [Compound 78]
Plant response rating, Surinam grass [1, 29]: 0 | Plant response rating, Surinam grass [1, 30]: 0 | Plant response rating, Barnyardgrass [2, 29]: 0 | Plant response rating, Barnyardgrass [2, 30]: 0 | Plant response rating, Blackgrass [3, 29]: 0 | Plant response rating, Blackgrass [3, 30]: 0 | Plant response rating, Cocklebur [4, 29]: 0 | Plant response rating, Cocklebur [4, 30]: 20 | Plant response rating, Corn [5, 29]: 0 | Plant response rating, Corn [5, 30]: 0 | Plant response rating, Crabgrass [6, 29]: 0 | Plant response rating, Crabgrass [6, 30]: 0 | Plant response rating, Foxtail, Giant [7, 29]: 0 | Plant response rating, Foxtail, Giant [7, 30]: 0 | Plant response rating, Lambsquarters [8, 29]: 0 | Plant response rating, Lambsquarters [8, 30]: 10 | Plant response rating, Morningglory [9, 29]: 0 | Plant response rating, Morningglory [9, 30]: 0 | Plant response rating, Pigweed [10, 29]: 70 | Plant response rating, Pigweed [10, 30]: 80 | Plant response rating, Velvetleaf [11, 29]: 0 | Plant response rating, Velvetleaf [11, 30]: 0 | Plant response rating, Wheat [12, 29]: 0 | Plant response rating, Wheat [12, 30]: 0 | Plant response rating, Wild Oat [13, 29]: 0 | Plant response rating, Wild Oat [13, 30]: 0 | Plant response rating, Surinam grass [14, 31]: 0 | Plant response rating, Surinam grass [14, 32]: 0 | Plant response rating, Barnyardgrass [15, 31]: 90 | Plant response rating, Barnyardgrass [15, 32]: 0 | Plant response rating, Cocklebur [16, 31]: 0 | Plant response rating, Cocklebur [16, 32]: 0 | Plant response rating, Corn [17, 31]: 0 | Plant response rating, Corn [17, 32]: 0 | Plant response rating, Crabgrass [18, 31]: 30 | Plant response rating, Crabgrass [18, 32]: 0 | Plant response rating, Foxtail, Giant [19, 31]: 10 | Plant response rating, Foxtail, Giant [19, 32]: 0 | Plant response rating, Lambsquarters [20, 31]: 100 | Plant response rating, Lambsquarters [20, 32]: 100 | Plant response rating, Morningglory [21, 31]: 0 | Plant response rating, Morningglory [21, 32]: 0 | Plant response rating, Pigweed [22, 31]: 100 | Plant response rating, Pigweed [22, 32]: 80 | Plant response rating, Rice [23, 31]: 0 | Plant response rating, Rice [23, 32]: 0 | Plant response rating, Velvetleaf [24, 31]: 0 | Plant response rating, Velvetleaf [24, 32]: 0 | Barnyardgrass plant response rating ([25]; Rate 250 g/ha): 0 | Barnyardgrass plant response rating ([25]; Rate 500 g/ha): 60 | Plant response rating, Barnyardgrass ([25]; Rate 62 g/ha): 0 | Plant response rating, Barnyardgrass ([25]; Rate 125 g/ha): 0 | Ducksalad plant response rating ([26]; Rate 250 g/ha): 0 | Ducksalad plant response rating ([26]; Rate 500 g/ha): 0 | Plant response rating, Ducksalad ([26]; Rate 62 g/ha): 0 | Plant response rating, Ducksalad ([26]; Rate 125 g/ha): 0 | Rice plant response rating ([27]; Rate 250 g/ha): 0 | Rice plant response rating ([27]; Rate 500 g/ha): 0 | Plant response rating, Rice ([27]; Rate 62 g/ha): 0 | Plant response rating, Rice ([27]; Rate 125 g/ha): 0 | Flatsedge plant response rating ([28]; Rate 250 g/ha): 0 | Flatsedge plant response rating ([28]; Rate 500 g/ha): 90 | Plant response rating, Flatsedge ([28]; Rate 62 g/ha): 0 | Plant response rating, Flatsedge ([28]; Rate 125 g/ha): 0
